Data: EP4813986A1, “COMPOUND FOR REDUCING SERUM CONCENTRATION OF RBP4, AND USE” (Heronova Pharmaceuticals, LLC, priority 2023, dated 2025)

How the values were obtained:
RBP4 = target: T1, RBP4 (Mus musculus, UniProt Q00724); experiment: Plasma RBP4 content detection test (ELISA) after single oral dose; type: in vivo, ICR male mice; settings: 5 mg/kg oral, maximum reduction within 5 to 24 hours vs 0-hour value
T1 construct: from tissue; host or cells: plasma of ICR male mice
Procedure: Test Method: ICR male mice aged 7 to 8 weeks were adaptively fed for 3 to 7 days and randomly divided into groups (4 mice per group), and fasted for 12 hours before the test. Orbital venous blood samples were collected and plasma was separated before administration on the test day (0-hour value as the initial content). Then, test compounds at a dose of 1 mg/kg or 5 mg/kg were orally administered (vehicle: 5% DMSO + 10% cyclodextrin), and vehicle (5% DMSO + 10% cyclodextrin) was orally administered as a control group. Orbital venous blood samples were collected and plasma was separated at 5, 8, 10, 12, and 24 hours after compound administration. The RBP4 content in plasma samples was detected using Mouse RBP4 (Retinol Binding Protein 4, Plasma) ELISA Kit (immunoway, KE1574), the reduction rate was calculated, and the maximum reduction rate within 5 to 24 hours was selected. Reduction rate of RBP4 content in mouse plasma at different sampling time points = (Initial RBP4 content - RBP4 content at sampling point) / Initial RBP4 content. Table 2 Plasma RBP4 Reduction Levels of Different Compounds

[1] = Pharmacokinetic test, single oral dose, plasma LC-MS/MS; type: in vivo; settings: mouse, single oral dose 10 mg/kg, male ICR mice
Procedure: Test Method: Three ICR mice (male) were used for each compound, with five groups in total. Mice were treated with a single oral dose of 10 mg/kg or 5 mg/kg. For each mouse, blood samples were collected at 0.25, 0.5, 1, 2, 4, and 8 hours after administration. Whole blood samples were placed in test tubes containing EDTA-K2, inverted up and down several times, and then centrifuged at 6000 rpm, 4°C for 15 minutes to obtain plasma. The concentration of the compound in plasma samples was determined using the LC-MS/MS method. Table 4 Pharmacokinetic Results of Different Compounds

in vitro = settings: microsomes, pH 7.4
Procedure: Phosphate buffer preparation: Weigh 7.098 g of disodium hydrogen phosphate, add 500 mL of pure water and dissolve by ultrasonication to obtain a disodium hydrogen phosphate solution. Weigh 3.400 g of potassium dihydrogen phosphate, add 250 mL of pure water and dissolve by ultrasonication to obtain a potassium dihydrogen phosphate solution. The disodium hydrogen phosphate solution and potassium dihydrogen phosphate solution were mixed and adjusted to pH 7.4+0.2.
10 mM NADPH preparation: Weigh an appropriate amount of NADPH (reduced coenzyme II), freshly prepare a 10 mM working solution with phosphate buffer, and the final concentration is 1 mM.
Incubation system preparation: Prepare the suspension into the incubation plate according to Table 5, and pre-incubate in a 37°C water bath for 10 min. Table 5 Incubation System Preparation
2 µL of positive control or test compound working solution was added to 358 µL of the incubation system, mixed uniformly by vortexing, and all samples were prepared in duplicate. 40 µL of 10 mM NADPH was added to the system, mixed uniformly by low-speed vortexing, and the reaction timing was started. […] Centrifuge at 4700 rpm, 4°C for 15 minutes to precipitate proteins. Transfer 100 µL of the supernatant to the sample plate, add 100 µL of pure water and mix well for UPLC-MS/MS analysis. Table 6 Liver Microsome Stability Results

Maximum Plasma RBP4 Reduction Rate (5 mg/kg dose) (RBP4): 11% | AUC(0-t) [1]: 13.3 ng·h/mL | Cmax ([1]; read-out: peak concentration Cmax): 15.2 ng/mL | Tmax ([1]; read-out: peak time Tmax): 30 min | half-life at 1 µM (in vitro; human): > 180 min | microsomal CLint at 1 µM (in vitro; human): < 7.44 µL/min/mg | half-life at 1 µM (in vitro; mouse): 43 min | microsomal CLint at 1 µM (in vitro; mouse): 32.2 µL/min/mg
SMILES: CC(C(N)=O)C(=O)N1CCc2c(C(=O)N3CC=C(c4cccc(F)c4C(F)(F)F)CC3)n[nH]c2C1 (centres unmarked) [Compound 22]
